# Values of other authors in patent US9095514B2, “Pharmaceutical composition” (SUN PHARMA ADVANCED RESEARCH COMPANY LTD., priority 2009, dated 2015).
structure (smiles),measurement,setting,value
"CC(C)C[C@H](NC(=O)[C@H](Cc1ccccc1)NC(=O)c1cnccn1)B(O)O [Bortezomib, N-(2-pyrazine) carbonyl-L-phenylalanine-L-leucine boronic acid]",stability in certain solvents,Sara Wu et al J. Pharm. Sci 89,quite unstable
same,solubility of solid bortezomib,at 1 mg/ml in 0.9% w/v of sodium chloride,not soluble
same,not stable for longer than,"stored at 2° C.-8° C., U.S. Pat. No. 6,713,446",3-6 months
same,stable for (HPLC purity>97%),"stored at −2° C. to −20° C., U.S. Pat. No. 6,713,446",more than 2 years
